Reference: patent publication US8709406B2, “Prevention and treatment of oxidative stress disorders by gluthathione and phase II detoxification enzymes” (Brassica Foundation for ChemoProtection Research, priority 2001, dated 2014)

How the values were obtained:
HaCaT cells = test: tert-Butyl hydroperoxide cytotoxicity (MTT, median effect analysis) and protection by sulforaphane; assay type: cell-based, human; details: tert-butyl hydroperoxide 8 h
Procedure: Mouse L1210 leukemia cells, a gift from Dr. Joseph G. Cory, East Carolina State University, Greenville, N.C., were grown in RPMI 1640 medium supplemented with 10% horse serum. All cultures were incubated in a humidified atmosphere of 5% CO2 at 37° C. Media and sera were obtained from Life Technologies (Rockville, Md.).
All experiments were performed in 96-well microliter plates. ARPE-19 and HaCaT cells were seeded at 10,000 cells per well and grown for 24 h before addition of sulforaphane, whereas L1210 cells (5,000 cells/well) were not incubated before sulforaphane treatment. Solutions of sulforaphane (5 mM) in dimethyl sulfoxide were diluted with the cognate culture medium to provide final inducer concentrations of 0.16-5.0 μM. The final DMSO concentrations were 0.1% by volume.
Cell viability was determined by spectroscopic measurement of the reduction of MTT (Carmichael, J., DeGraff, W. G., Gazdar, A. F., Minna, J. D. & Mitchell, J. B. (1987) Cancer Res. 47, 936-942). The culture media were discarded after the designated incubation periods, the cells were washed three times with PBS by use of a microtiter plate washer (Ultrawash Plus, Dynex Technologies, Chantilly, Va.). Each well then received 150 μl of an MTT solution (0.5 mg/ml) in serum-free medium. The plates were incubated for 2 h at 37° C., the MTT solution was discarded, 100 μl of DMSO were added to each well, and the plates were shaken at 200 rpm on an orbital shaker for 5 min. The absorbances of the wells were determined at 555 nm with a microtiter plate reader (Spectra Max Plus, Molecular Devices, Sunnyvale, Calif.). The absorbance of reduced MIT was then compared at each inducer and oxidant concentration to that of untreated control cells that received only the vehicle in which sulforaphane (DMSO) and menadione (DMSO or PBS) were dissolved. In each experiment three identical 96-well plates were used and the means of the absorbance values, the standard deviations of these means, and their coefficients of variation were calculated.
Dose-effect analyses were performed according to the Median Effect Equation, by use of a computer program (Chou, T. C. & Hayball, M. (1996) CalcuSyn for Windows 3.1 and 95: multiple dose effect analyzer and manual for IBM-PC, Biosoft, Cambridge, U.K). The equation: fa/fu=[D/Dm]^m, where fa is the fraction of cells affected by the oxidant, fu is the fraction unaffected (i.e., 1-fa), D is the dose of oxidant required to produce the effect fa, Dm is the concentration of oxidant required to produce a 50% effect, i.e., when fa=fu, and the slope m is a measure of the sigmoidicity of the dose-response curve, and is therefore a measure of cooperativity. The results are analyzed by plotting log(fa/fu) with respect to log D of the oxidant. The computer program provides the slope (m) of the curves, and the goodness of fit (r^2) to linearity.

[1] = tested on: glucose 6-phosphate dehydrogenase; details: ARPE-19; sulforaphane 0.625 and 2.5 μM 24 h, then medium without inducer
Procedure: (§1) Cells were lysed by addition of a digitonin solution (0.8 mg/ml digitonin in 2 mM EDTA, pH 7.8), incubated at 37° C. for 20 min, gently shaken for 20 min at 25° C., and centrifuged at 1,500×g for 20 min at 4° C.
(§2) All measurements were made in 96-well microtiter plates at 25° C., and reaction rates were monitored with a microtiter plate reader. The QR activities of supernatant fractions were determined by procedures developed in our laboratory (Fahey, J. W., Zhang, Y. & Talalay, P. (1997) Proc. Natl. Acad. Sci. USA 94, 10367-10372; Prochaska, H. J., Santamaria, A. B. & Talalay, P. (1992) Proc. Natl. Acad. Sci. USA 89, 2394-2398.). Specific activities were obtained by relating the reaction rates to protein concentrations determined with the bicinchoninic acid reagent (Smith, P. K., Krohn, R. I., Hermanson, G. T., Mallia, A. K., Gratner, F. H., Provenzano, M. D., Fujimoto, E. K., Goeke, N. M., Olson, B. J. & Klenk, D. C. (1985) Anal. Biochem. 150, 76-85). […] Glutathione reductase activity was assayed by mixing 50 μl of cell lysate with 25 μl of 1 mM NADPH, 25 μl of GSSG (20 mg/ml), and 150 μl of 50 mM sodium phosphate, pH 7.5. Initial reaction rates were obtained at 340 nm (Carlberg, I. & Mannervik, B. (1985) Methods Enzymol. 113, 484-490).

glutathione reductase = details: ARPE-19; sulforaphane 0.625 and 2.5 μM 24 h, then medium without inducer
Procedure: as §1, §2

quinone reductase = details: ARPE-19
Procedure: as §1, §2

[2] = after sulforaphane 0.63 μM 24 h
[3] = after sulforaphane 1.25 μM 24 h
[4] = after sulforaphane 2.50 μM 24 h

C[S+]([O-])CCCCN=C=S (stereo not shown) [Sulforaphane]
Dm (median effect concentration) of tert-butyl hydroperoxide (HaCaT cells; [2]): 113 µM | m (slope of median effect plot) for tert-butyl hydroperoxide (HaCaT cells; [2]): 0.894 | Dm (median effect concentration) of tert-butyl hydroperoxide (HaCaT cells; [3]): 166 µM | m (slope of median effect plot) for tert-butyl hydroperoxide (HaCaT cells; [3]): 0.921 | Dm (median effect concentration) of tert-butyl hydroperoxide (HaCaT cells; [4]): 200 µM | m (slope of median effect plot) for tert-butyl hydroperoxide (HaCaT cells; [4]): 0.768 | specific activity of glucose 6-phosphate dehydrogenase after removal of sulforaphane [1]: continued to rise for 48 h after removal of sulforaphane | specific activity of glutathione reductase after removal of sulforaphane (glutathione reductase): continued to rise for 48 h after removal of sulforaphane | specific activities of QR in cytosols (quinone reductase; sulforaphane 0-5.0 μM 24 h): rose with exposure to increasing concentrations of sulforaphane | specific activity of QR after removal of sulforaphane (quinone reductase; sulforaphane 0.625 and 2.5 μM 24 h, then medium without inducer): continued to rise for 48 h after removal of sulforaphane
